Measured values: patent US20240360122A1, “POLYMORPHIC FORMS AND SALTS OF A GLP-1R AGONIST” (Terns (Suzhou) Biotechnology Co., Ltd., priority 2023, published 2024)
≈ marks a conversion by molar mass, not a printed value. Entries after “also recorded” stand apart in the source; their conditions may differ. Structures can show the parent of a compound that is named as a salt.

Key:
Assay type in all cases: physicochemical
[1] = Chemical stability studies of Compound 1 meglumine salt at high temperatures; settings: solution and solid states
[2] = Kinetic solubility in water and bio-relevant media (SGF, FaSSIF, FeSSIF) at 37° C.; settings: for S: Solubility: calculated by freeform; for FC: Form change: residual solids by XRPD
How it was run: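 Compound rolled at 37 °C (~25 rpm) in water, SGF (pH 1.8, NaCl, Triton X-100), FaSSIF (pH 6.5 phosphate, SIF powder) or FeSSIF (pH 5.0 acetate, SIF powder). Samples at 1, 2, 4 and 24 h were centrifuged and 0.45 μm-filtered; filtrate concentration and pH measured, residual solid checked by XRPD.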

[3] = pH solubility in pH 1.0-8.0 buffers at RT; settings: thermodynamic from solid; for solubility at 24 h: LOQ = 0.0001 mg/mL; for solubility: pH buffers, 2 and 24 hours
Experimental: The procedures were listed below:
1. […] Add 2 ml, of the corresponding medium.
2. Mixed well and stirred at RT (1000 rpm). Check the pH and adjust it back to the target pH after dosing.
3. Sampled after 2 hours and 24 hours. The supernatant was isolated by centrifugation (12000 rpm, 5 min) and filtration (0.22 μm, PTFE) for pH and HPLC test.

[4] = Hygroscopicity by DVS at 25° C.
Experimental: DVS was measured via a SMS (Surface Measurement Systems) DVS Intrinsic. The relative humidity at 25° C. were calibrated against deliquescence point of LiCl, Mg(NO3)2 and KCl.

[5] = Solid state stability at 25° C./60% RH and 40° C./75% RH for 1 week
Experimental: Each sample was added into a glass vial, sealed by parafilm with several holes, and kept under tested conditions. After one week, samples were taken for XRPD and HPLC purity test.

[6] = Slurry competition among Freeform Type A/C/M; settings: slurry competition in EtOAc and ACN, RT and 50° C.
Experimental: The detailed procedures are as following:
1. […] Add 1 mL corresponding solvent.
2. Magnetically stirred at RT or 50° C. for 4 hours. Filter through 0.45 μm PTFE filter to obtain clear solution.
4. Magnetically stirred at RT or 50° C. for 4 days. Tested XRPD of the wet cake.

[7] = Characterization of Compound 1 freeform forms: form change on storage or drying (XRPD); settings: after drying at RT under vacuum
Experimental: Starting from Compound 1 Freeform Type D, polymorph screening experiments were performed under 50 conditions using different solvent-mediated crystallization or solid transition methods. The obtained solids were characterized by XRPD. According to XRPD comparison results, a total of 16 crystal forms were discovered, named as Type A˜P. The characterization results of all the forms were listed in Table 60.
Freeform Type O was obtained after adding anti-solvent toluene into DMSO solution of Freeform Type D and drying at ambient conditions. After drying at RT under vacuum for 1 day, diffraction peaks of Freeform Type K were observed. As Freeform Type K was a DMSO solvate, it is speculated that Freeform Type O was also a DMSO solvate.

N#Cc1ccc(COc2cccc(C3CCN(Cc4nc5ccc(C(=O)O)cc5n4Cc4cncs4)CC3)n2)c(F)c1 [Compound 1 meglumine salt]
chemical stability [1]: generally stable

N#Cc1ccc(COc2cccc(C3CCN(Cc4nc5ccc(C(=O)O)cc5n4Cc4cncs4)CC3)n2)c(F)c1 [Freeform Type C]
S: Solubility ([2]; FaSSIF, 37° C., 1 hr): 2 µg/mL
FC: Form change ([2]; FaSSIF, 37° C., 1 hr): No
S: Solubility ([2]; FaSSIF, 37° C., 2 hrs): 7 µg/mL
FC: Form change ([2]; FaSSIF, 37° C., 2 hrs): No
S: Solubility ([2]; FaSSIF, 37° C., 4 hrs): 5 µg/mL
FC: Form change ([2]; FaSSIF, 37° C., 4 hrs): No
S: Solubility ([2]; FaSSIF, 37° C., 24 hrs): 3 µg/mL
FC: Form change ([2]; FaSSIF, 37° C., 24 hrs): No
FC: Form change ([2]; FeSSIF, 37° C., 1 hr): No
FC: Form change ([2]; FeSSIF, 37° C., 2 hrs): No
FC: Form change ([2]; FeSSIF, 37° C., 4 hrs): No
S: Solubility ([2]; FeSSIF, 37° C., 24 hrs): 8 µg/mL
FC: Form change ([2]; FeSSIF, 37° C., 24 hrs): No
S: Solubility ([2]; H2O, 37° C., 1 hr): 20 µg/mL
FC: Form change ([2]; H2O, 37° C., 1 hr): No
S: Solubility ([2]; H2O, 37° C., 2 hrs): 27 µg/mL
FC: Form change ([2]; H2O, 37° C., 2 hrs): No
S: Solubility ([2]; H2O, 37° C., 4 hrs): 20 µg/mL
FC: Form change ([2]; H2O, 37° C., 4 hrs): No
S: Solubility ([2]; H2O, 37° C., 24 hrs): 8 µg/mL
FC: Form change ([2]; H2O, 37° C., 24 hrs): No
S: Solubility ([2]; SGF, 37° C., 1 hr): 83 µg/mL
FC: Form change ([2]; SGF, 37° C., 1 hr): No
S: Solubility ([2]; SGF, 37° C., 2 hrs): 72 µg/mL
FC: Form change ([2]; SGF, 37° C., 2 hrs): No
S: Solubility ([2]; SGF, 37° C., 4 hrs): 75 µg/mL
FC: Form change ([2]; SGF, 37° C., 4 hrs): No
S: Solubility ([2]; SGF, 37° C., 24 hrs): 78 µg/mL
FC: Form change ([2]; SGF, 37° C., 24 hrs): No
form change of residual solids (XRPD) after solubility test ([2]; all the media (H2O, SGF, FaSSIF, FeSSIF), after 24 hrs): No form change
solubility compared with the other selected salts ([2]; all the media, 37° C.): lowest solubility
solubility at 24 h ([3]; pH 1.0 buffer, pH 1, aqueous buffer): 130 µg/mL (≈ 223 µM)
solubility at 24 h ([3]; pH 2.0 buffer, pH 2, aqueous buffer): 17 µg/mL (≈ 29.2 µM)
solubility ([3]; pH 1, aqueous buffer, pH 1.0 buffer): ≥ 130 µg/mL
solubility ([3]; pH 2, aqueous buffer, pH 2.0˜8.0 buffers): ≤ 34 µg/mL
water uptake (DVS) ([4]; 25° C./80% RH): 0.12%
hygroscopicity ([4]; DVS, 25° C.): non-hygroscopic
Water uptake at 25° C./80% RH ([4]; DVS, 25° C./80% RH): 0.12 wt %
For change after DVS ([4]; XRPD after DVS test): No
form change after DVS test (XRPD) ([4]; after DVS test): no form change
Form change ([5]; 25° C./60% RH/Open/1 week): No
Purity ([5]; 25° C./60% RH/Open/1 week): 96.58 Area %
solid-state stability: form change and purity decrease ([5]; 25° C./60% RH/open and 40° C./75% RH/open, 1 week): no form change or significant purity decrease
Form change ([5]; 40° C./75% RH/Open/1 week): No
Purity ([5]; 40° C./75% RH/Open/1 week): 96.69 Area %
Purity ([5]; Initial): 96.59 Area %
thermodynamic stability relationship among freeform anhydrates [6]: thermodynamically more stable anhydrate; also recorded: thermodynamically more stable form

N#Cc1ccc(COc2cccc(C3CCN(Cc4nc5ccc(C(=O)O)cc5n4Cc4cncs4)CC3)n2)c(F)c1 [Freeform Type O]
Form change [7]: Change to Freeform Type K after drying at RT under vacuum.
